Experimental data as given in patent US20150118215A1, “Methods of Inhibiting Cell Proliferation” (The General Hospital Corporation, priority 2012, published 2015).
Like-named read-outs stand apart in the source and are kept apart here.

Tests used:
[1] = molecular target: T1, Sec7 domain of cytohesin-2 (Homo sapiens, UniProt Q99418); test: Tryptophan fluorescence-based GTPγS binding (GEF-activity) assay of Sec7 domain; type: biochemical; conditions: purified Sec7 domain; truncated [Δ17]Arf1 as substrate; read-out: IC50, inhibition of enzymatic GEF-activity of Sec7 with [Δ17]Arf1
T1 construct: The Sec7 domain of human cytohesin-2 (61-252aa) was expressed in BL21/DE3 cells; GST (N, cleaved yes); made in house; host or cells: E. coli BL21/DE3
T1 sequence (Q99418 61-252): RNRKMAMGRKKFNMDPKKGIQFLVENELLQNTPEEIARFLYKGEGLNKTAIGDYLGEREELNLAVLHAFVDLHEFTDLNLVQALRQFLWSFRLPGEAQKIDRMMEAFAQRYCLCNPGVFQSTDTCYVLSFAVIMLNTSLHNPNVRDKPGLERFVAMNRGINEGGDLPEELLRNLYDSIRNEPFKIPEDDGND
Description: b) Tryptophan Fluorescence-Based GTPγS Binding Assay.
In this assay, exchange is followed in real time. […] These are soluble in both GDP and GTP bound forms (myr Arf-GTP requires a hydrophobic surface for stability) allowing exchange to occur in the absence of lipid or detergent, which is desirable because lipid or detergent can scatter light and possibly confound interpretation of changes in fluorescence. To monitor tryptophan fluorescence, the fluorescent spectra of [Δ17]Arf1 in GDP-bound and GTPγS-bound forms were obtained at an excitation wavelength of 285 nm using a PTI spectrofluorimeter. […] Measurements were performed at 37° C. in 50 mM HEPES-KOH, 100 mM KCl, 1 mM MgCl2, 1 mM DTT, 10 μM GTPγS, 1 μM [Δ17]Arf1 or [Δ13]Arf6 and 10 nM Sec7-domain. […] Data were fitted by single exponential curve and analyzed using Microsoft Excel.
This assay allows real-time measurements of the GEF Sec7 domain-induced nucleotide exchange. [Δ17]Arf1 and [Δ13]Arf6, which are soluble in the GTP-bound form, were used as substrates, thereby eliminating the need for phospholipid or detergent in the assay. […] Activation of [Δ17]Arf1 or [Δ13]Arf6 from the GDP-bound form to the GTPγS-bound form was monitored by tryptophan fluorescence (emission/excitation wavelengths of 285/335 nm) (FIG. 3A).

PC-9 xenografts = conditions: Bill et al.; cited from earlier work
H460 xenografts = conditions: Bill et al.; cited from earlier work
cytohesin-2 = molecular target: T2, cytohesin-2 (Homo sapiens, UniProt Q99418); test: Radiolabel-based GEF-activity assay ([35S]-GTPγS binding) of full-length cytohesin-2 with myr-Arf1 or myr-Arf6; type: biochemical
T2 construct: steady-state enzymatic GEF-activity analysis of full-length cytohesin-2 or Sec7 domain with Arf1 and Arf6; made in house; host or cells: E. coli BL21DE3
T2 sequence (Q99418 1-400): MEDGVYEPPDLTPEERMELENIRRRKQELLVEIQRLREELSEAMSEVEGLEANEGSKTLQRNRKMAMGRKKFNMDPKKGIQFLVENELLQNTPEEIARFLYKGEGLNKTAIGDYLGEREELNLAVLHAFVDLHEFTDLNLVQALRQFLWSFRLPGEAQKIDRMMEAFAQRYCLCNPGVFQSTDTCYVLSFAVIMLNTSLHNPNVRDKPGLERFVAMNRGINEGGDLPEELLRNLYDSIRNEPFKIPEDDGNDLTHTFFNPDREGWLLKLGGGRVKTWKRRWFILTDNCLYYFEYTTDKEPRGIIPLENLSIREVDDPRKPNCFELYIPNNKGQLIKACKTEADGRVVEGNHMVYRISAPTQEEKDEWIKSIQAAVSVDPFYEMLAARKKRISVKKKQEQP
Experimental: Two assays were used to determine the GDP/GTP-exchange activity of both full-length cytohesin-2 and Sec7 domain.
a) Radiolabel-Based Assay.
The lipids were dissolved in chloroform. […] Proteins were trapped on nitrocellulose filters.
To test the potential signaling between V-ATPase and cytohesin-2/Arf GTP-binding proteins, a GEF-activity assay was established for cytohesin-2 (wt) and myristoylated myr-Arf6 (wt) and myr-Arf1 (wt) GTP-binding proteins (FIG. 2A). Human Arf1 was co-expressed with yeast N-myristoyltransferase in E. coli BL21/DE3 strain. Recombinant myr-Arf1 was purified from the E. coli lysate (A1) using an AKTApurifier equipped with HiTrapQ, Superdex200 columns (A2), and Phenyl Sepharose HP column (A3). Human Arf6 was also co-expressed with yeast N-myristoyltransferase in E. coli BL21/DE3 strain. Recombinant myr-Arf6 was extracted from insoluble fraction using Triton X-100 (B1). The extract was precipitated by 35% ammonium sulfate and myr-Arf6 purified with HiTrapQ column (B2). […] Several soluble, cell permeable and fluorescently labeled a2N1-17 derived peptides were synthesized, which were used in the current GEF-activity and structural studies in vitro.

EGFR/ErbB-signaling = conditions: SecinH3 or cytohesin-2 knock-down; Bill et al.; cited from earlier work
Human NSCLC A549 cells = test: Cell proliferation assays (MTT, direct cell counting); type: cell-based; conditions: A549, wild-type EGFR, KRas-G12S; three days treatment
Experimental: Cell Proliferation Assays—
First, MTT proliferation assay was carried out using cell growth determination kit according to manufacturer instructions (Sigma). Human NSCLC A549 cells which are expressing wild-type EGFR with KRas-G12S activation mutation were studied in these experiments. […] Medium was changed daily for three days, and cells were stained with MTT and DAPI when indicated.
Second, direct cells counting assays were also performed as follows. Microscopic images of 0.317 mm^2 area each well were acquired for MTT stained cells and cells were counted using ImageJ (NIH). […] Alternatively, the cells were stained with DAPI and microscopic images of whole wells were acquired using DeltaVision system (Applied Precision). Cells were counted using Particle Tracker PlugIn for ImageJ as above (FIG. 13).

tumor xenografts = conditions: SecinH3 or cytohesin-2 knock-down; Bill et al.; cited from earlier work
[2] = tested on: gefitinib-resistant NSCLC H460 cells; conditions: Bill et al. 2012; cited from earlier work
[3] = tested on: gefitinib-resistant NSCLC A549 cells; conditions: Bill et al. 2012; cited from earlier work
lung cancer cells = conditions: SecinH3 or cytohesin-2 knock-down; Bill et al.; cited from earlier work

## COc1nc(-c2ccc3c(c2)OCO3)n(-c2ccc(NC(=O)CSc3ccccc3)cc2)n1 [SecinH3]
[1]
  IC50: 6.9 µM
PC-9 xenografts
  action in vivo in mice bearing PC-9 xenografts: anti-proliferative and pro-apoptotic action
H460 xenografts
  action in vivo in mice bearing H460 xenografts: anti-proliferative and pro-apoptotic action
cytohesin-2; myr-Arf1 as substrate, azolectin, read-out: IC50, inhibition of enzymatic GEF-activity of cytohesin-2 with myr-Arf1
  IC50: > 150 µM
cytohesin-2; myr-Arf6 as substrate, PIP2-containing liposomes, read-out: IC50, inhibition of enzymatic GEF-activity of cytohesin-2 with myr-Arf6
  IC50: > 150 µM
EGFR/ErbB-signaling
  EGFR/ErbB-signaling: reduction
Human NSCLC A549 cells
  inhibition of proliferation of human lung cancer A549 cells: anti-proliferative action
Tumor xenografts
  growth of tumor xenografts in nude mice model in vivo: reduction of growth
[2]
  proliferation of gefitinib-resistant NSCLC H460 cells: efficiently reduced
[3]
  proliferation of gefitinib-resistant NSCLC A549 cells: efficiently reduced
Lung cancer cells
  cancer cell proliferation in vitro: suppression
